Assay [1] has as its system U87MG pLVX-IDH2 R140Q-neo cells. Briefly: U87MG pLVX-IDH2 R140Q-neo cell based assay, 2-HG in media by LC-MS at 48 hours. The settings on record: Homo sapiens, U-87 MG. The method in brief: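 U87MG cells stably expressing IDH2 R140Q were seeded overnight, then exposed to compound at 0.2% final DMSO at 37 °C, 5% CO2. 2-HG in the medium was quantified by LC-MS at 48 h. Growth inhibition was read by CellTiter-Glo luminescence at 72 h.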

Another assay addresses T1, IDH2 R172K (Homo sapiens, UniProt P48735, R172K).
T1 sequence (P48735 40-452 R172K): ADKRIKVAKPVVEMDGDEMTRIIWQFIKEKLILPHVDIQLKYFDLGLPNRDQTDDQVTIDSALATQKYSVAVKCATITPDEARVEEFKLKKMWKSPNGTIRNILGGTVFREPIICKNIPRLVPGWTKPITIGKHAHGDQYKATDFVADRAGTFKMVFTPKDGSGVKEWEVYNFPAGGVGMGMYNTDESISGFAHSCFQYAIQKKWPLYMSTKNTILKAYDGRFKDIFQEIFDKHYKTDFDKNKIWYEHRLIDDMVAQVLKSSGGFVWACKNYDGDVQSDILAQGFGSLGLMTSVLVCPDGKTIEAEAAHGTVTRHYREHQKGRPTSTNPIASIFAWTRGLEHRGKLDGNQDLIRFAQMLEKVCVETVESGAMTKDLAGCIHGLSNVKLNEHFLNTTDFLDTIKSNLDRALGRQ
Briefly: IDH2 R172K enzymatic assay (NADPH cofactor depletion, diaphorase/resazurin readout). The format is biochemical. The note with it: read-out: Enz R172K. In a few lines: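 Test compounds are incubated with the mutant enzyme for one hour at ambient temperature. A substrate mix of 50 μM NADPH plus 6.3 mM α-KG initiates turnover, which proceeds for one hour. Diaphorase and resazurin then halt the reaction by depleting the cofactor and convert the remaining NADPH into a fluorescent signal.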

Another assay deals with T2, IDH2 R140Q (Homo sapiens, UniProt P48735, R140Q).
T2 sequence (P48735 40-452 R140Q): T1 sequence (P48735 40-452 R172K) with R101Q, K133R
In words: IDH2 R140Q enzymatic assay (cofactor depletion, similar format). The settings on record: read-out: Enz R140Q. The format is biochemical.

Residue numbers refer to the chain shown, from its start. pIC50: −log10 of the molar value. Some results are limits rather than exact numbers.

For `CC(C)Nc1nc(Nc2cncc(F)c2)nc(-c2ccccc2)n1` [Compound 193, N^2-(5-fluoropyridin-3-yl)-N^4-isopropyl-6-phenyl-1,3,5-triazine-2,4-diamine], the pIC50 is greater than 7.00 in assay [1], 6.00 to 7.00 on IDH2 R172K and greater than 7.00 on IDH2 R140Q.
Consider `c1ccc(-c2nc(NCC3CCC3)nc(Nc3ccncc3)n2)cc1` [Compound 250, N^2-(cyclobutylmethyl)-6-phenyl-N^4-(pyridin-4-yl)-1,3,5-triazine-2,4-diamine], for which the pIC50 in assay [1] is 6.00 to 7.00; at IDH2 R172K, 6.00 to 7.00; on IDH2 R140Q, greater than 7.00.
Take `CCNS(=O)(=O)c1cccc(Nc2nc(NC(C)C)nc(-c3ccccc3)n2)c1` [Compound 204, N-ethyl-3-(4-(isopropylamino)-6-phenyl-1,3,5-triazin-2-ylamino)benzenesulfonamide]: the pIC50 in assay [1] was 6.00 to 7.00; at IDH2 R172K it was 5.00 to 6.00; on IDH2 R140Q, greater than 7.00.
For `CC(C)Nc1nc(Nc2ccnc(C#N)c2)nc(-c2ccccc2)n1` [Compound 197, 4-(4-(isopropylamino)-6-phenyl-1,3,5-triazin-2-ylamino)picolinonitrile], the pIC50 in assay [1] is greater than 7.00; on IDH2 R172K, 6.00 to 7.00; on IDH2 R140Q it was greater than 7.00.
In the case of `CCCCNc1nc(Nc2ccncc2)nc(-c2ccccc2)n1` [Compound 211, N^2-butyl-6-phenyl-N^4-(pyridin-4-yl)-1,3,5-triazine-2,4-diamine], the pIC50 was 6.00 to 7.00 in assay [1], 6.00 to 7.00 on IDH2 R172K and greater than 7.00 on IDH2 R140Q.
In the case of `CC(C)(O)CNc1nc(Nc2ccnc(C(F)(F)F)c2)nc(-c2cccc(O)c2)n1` [Compound 641, 3-(4-((2-hydroxy-2-methylpropyl)amino)-6-((2-(trifluoromethyl)pyridin-4-yl)amino)-1,3,5-triazin-2-yl)phenol], the figures for the pIC50 (in assay [1]; at IDH2 R172K; on IDH2 R140Q) were greater than 7.00, greater than 7.00 and 6.00 to 7.00, respectively.
On to `CC(CO)Nc1nc(Nc2ccccc2)nc(-c2ccccc2)n1` (stereo not drawn) [Compound 241, 2-(4-phenyl-6-(phenylamino)-1,3,5-triazin-2-ylamino)propan-1-ol], for which the values for the pIC50 (in assay [1]; on IDH2 R172K; on IDH2 R140Q) were 6.00 to 7.00, 5.00 to 6.00 and greater than 7.00, respectively.
For the compound `CC(C)Nc1nc(Nc2cccc(F)c2)nc(-c2ccccc2)n1` [Compound 178, N-(3-Fluoro-phenyl)-N′-isopropyl-6-phenyl-[1,3,5]triazine-2,4-diamine], the pIC50 (in assay [1]; on IDH2 R172K; at IDH2 R140Q) was greater than 7.00 in each case.
With `CC(C)Nc1nc(Nc2cncc(Cl)c2)nc(-c2ccccc2)n1` [Compound 194, N^2-(5-chloropyridin-3-yl)-N^4-isopropyl-6-phenyl-1,3,5-triazine-2,4-diamine], the pIC50 (in assay [1]; on IDH2 R172K; at IDH2 R140Q) was greater than 7.00 in each case.
`CC(F)(F)c1cccc(-c2nc(NCC3CC3)nc(Nc3cc(F)cc(S(C)(=O)=O)c3)n2)n1` [Compound 612, N2-(cyclopropylmethyl)-6-(6-(1,1-difluoroethyl)pyridin-2-yl)-N4-(3-fluoro-5-(methylsulfonyl)phenyl)-1,3,5-triazine-2,4-diamine]: the pIC50 in assay [1] is greater than 7.00; at IDH2 R172K, greater than 7.00; on IDH2 R140Q, 6.00 to 7.00.
`Fc1ccc(Nc2nc(NC3COC3)nc(-c3ccccc3F)n2)cn1` [Compound 626, 6-(2-Fluoro-phenyl)-N-(6-fluoro-pyridin-3-yl)-N′-oxetan-3-yl-[1,3,5]triazine-2,4-diamine]: the pIC50 in assay [1] was 6.00 to 7.00; at IDH2 R172K, 5.00 to 6.00; at IDH2 R140Q, 6.00 to 7.00.
`Fc1ccc(Nc2nc(NC3C4COCC43)nc(-c3cccc(Cl)n3)n2)cn1` (stereo not drawn) [Compound 512, 6-(6-Chloro-pyridin-2-yl)-N-(6-fluoro-pyridin-3-yl)-N′-(3-oxa-bicyclo[3.1.0]hex-6-yl)-[1,3,5]triazine-2,4-diamine]: the pIC50 in assay [1] was greater than 7.00; at IDH2 R172K it was 6.00 to 7.00; on IDH2 R140Q, 6.00 to 7.00.
Consider `CCC(=O)Nc1nc(Nc2ccccc2)nc(-c2ccccc2)n1` [Compound 209, N-(4-phenyl-6-(phenylamino)-1,3,5-triazin-2-yl)propionamide], for which the pIC50 was 6.00 to 7.00 in assay [1], 6.00 to 7.00 on IDH2 R172K and greater than 7.00 on IDH2 R140Q.
`CC(C)Nc1nc(Nc2ccon2)nc(-c2ccccc2)n1` [Compound 169]: the pIC50 in assay [1] is 6.00 to 7.00; at IDH2 R172K, 6.00 to 7.00; on IDH2 R140Q it was greater than 7.00.
In the case of `CC1CC1Nc1nc(Nc2ccnc(C(F)(F)F)c2)nc(-c2cccc(C(F)(F)F)n2)n1` (stereo not drawn) [Compound 532, N-(2-Methyl-cyclopropyl)-6-(6-trifluoromethyl-pyridin-2-yl)-N′-(2-trifluoromethyl-pyridin-4-yl)-[1,3,5]triazine-2,4-diamine], the pIC50 in assay [1] is greater than 7.00; on IDH2 R172K, greater than 7.00; on IDH2 R140Q, 6.00 to 7.00.
In the case of `Fc1ccccc1-c1nc(Nc2ccnc(C(F)(F)F)c2)nc(NC2COC2)n1` [Compound 627, 6-(2-Fluoro-phenyl)-N-oxetan-3-yl-N′-(2-trifluoromethyl-pyridin-4-yl)-[1,3,5]triazine-2,4-diamine], the pIC50 (in assay [1]; at IDH2 R172K; on IDH2 R140Q) was greater than 7.00 throughout.
As for `CC(C)Nc1nc(Nc2cncc(F)c2)nc(-c2c(F)cccc2F)n1` [Compound 474, 6-(2,6-Difluoro-phenyl)-N-(5-fluoro-pyridin-3-yl)-N′-isopropyl-[1,3,5]triazine-2,4-diamine], the pIC50 in assay [1] is greater than 7.00; at IDH2 R172K, greater than 7.00; at IDH2 R140Q, 6.00 to 7.00.
As to `CC(C)Nc1nc(Nc2ccnc(C(F)(F)F)c2)nc(-c2cccc(N)n2)n1` [Compound 687, 6-(6-aminopyridin-2-yl)-N2-isopropyl-N4-(2-(trifluoromethyl)pyridin-4-yl)-1,3,5-triazine-2,4-diamine], the pIC50 was greater than 7.00 in assay [1], greater than 7.00 on IDH2 R172K and 6.00 to 7.00 at IDH2 R140Q.
On to `CC(C)(CO)CNc1nc(Nc2ccccc2)nc(-c2ccccc2)n1` [Compound 239, 2,2-dimethyl-3-(4-phenyl-6-(phenylamino)-1,3,5-triazin-2-ylamino)propan-1-ol], for which the figures for the pIC50 (in assay [1]; at IDH2 R172K; on IDH2 R140Q) were greater than 7.00, 6.00 to 7.00 and greater than 7.00, respectively.
Turning to `CC(C)Nc1nc(Nc2ccnc(C(C)(C)C#N)c2)nc(-c2cccc(C(C)(F)F)n2)n1` [Compound 677, 2-(4-{4-[6-(1,1-Difluoro-ethyl)-pyridin-2-yl]-6-isopropylamino-[1,3,5]triazin-2-ylamino}-pyridin-2-yl)-2-methyl-propionitrile], the pIC50 in assay [1] was greater than 7.00; at IDH2 R172K, greater than 7.00; on IDH2 R140Q, 6.00 to 7.00.
`FC(F)(F)c1cc(Nc2nc(NC3CC4CCC3O4)nc(-c3cccc(C(F)(F)F)n3)n2)ccn1` (stereo not drawn) [Compound 556, N-(7-Oxa-bicyclo[2.2.1]hept-2-yl)-6-(6-trifluoromethyl-pyridin-2-yl)-N′-(2-trifluoromethyl-pyridin-4-yl)-[1,3,5]triazine-2,4-diamine]: the values for the pIC50 (in assay [1]; at IDH2 R172K; on IDH2 R140Q) were greater than 7.00, greater than 7.00 and 6.00 to 7.00, respectively.
As for `CC(C)(C)CNc1nc(Nc2ccnc(C(F)(F)F)c2)nc(-c2ccccn2)n1` [Compound 517, N-(2,2-Dimethyl-propyl)-6-pyridin-2-yl-N′-(2-trifluoromethyl-pyridin-4-yl)-[1,3,5]triazine-2,4-diamine], the pIC50 in assay [1] was greater than 7.00; at IDH2 R172K it was greater than 7.00; on IDH2 R140Q it was 6.00 to 7.00.
Regarding `CC(C)Nc1nc(Nc2ccccc2)nc(-c2ccc(Cl)cc2)n1` [Compound 122], the results for the pIC50 (in assay [1]; at IDH2 R172K; on IDH2 R140Q) were 5.00 to 6.00, 5.00 to 6.00 and 6.00 to 7.00, respectively.
For `CC(C)Nc1nc(Nc2cc(F)cc(F)c2)nc(-c2cccc(C(F)(F)F)n2)n1` [Compound 603, N2-(3,5-difluorophenyl)-N4-isopropyl-6-(6-(trifluoromethyl)pyridin-2-yl)-1,3,5-triazine-2,4-diamine], the pIC50 is greater than 7.00 in assay [1], greater than 7.00 on IDH2 R172K and 6.00 to 7.00 at IDH2 R140Q.
`CC(C)Nc1nc(Nc2cncnc2)nc(-c2ccccc2)n1` [Compound 266, N^2-isopropyl-6-phenyl-N^4-(pyrimidin-5-yl)-1,3,5-triazine-2,4-diamine]: the pIC50 in assay [1] is 6.00 to 7.00; at IDH2 R172K, 5.00 to 6.00; on IDH2 R140Q, greater than 7.00.

The values above are taken from US9512107B2, “Therapeutically active compositions and their methods of use” (Agios Pharmaceuticals, Inc., priority 2012, dated 2016).
